Data as given in patent publication US10323027B2, “2,3-dihydro-4H-1,3-benzoxazin-4-one derivatives as modulators of cholinergic muscarinic M1 receptor” (Takeda Pharmaceutical Company Limited, priority 2015, dated 2019).

How the values were obtained:
[1] = biological target: T1, human M1 receptor (hCHRM1) (Homo sapiens, UniProt P11229); experiment: Measurement of M1 receptor positive allosteric modulator (M1PAM) activity, Ca2+ fluorescence by FDSS/μ cell (Experimental Example 2); type: cell-based
T1 construct: expressed in transfected cells
T1 sequence (P11229 1-460): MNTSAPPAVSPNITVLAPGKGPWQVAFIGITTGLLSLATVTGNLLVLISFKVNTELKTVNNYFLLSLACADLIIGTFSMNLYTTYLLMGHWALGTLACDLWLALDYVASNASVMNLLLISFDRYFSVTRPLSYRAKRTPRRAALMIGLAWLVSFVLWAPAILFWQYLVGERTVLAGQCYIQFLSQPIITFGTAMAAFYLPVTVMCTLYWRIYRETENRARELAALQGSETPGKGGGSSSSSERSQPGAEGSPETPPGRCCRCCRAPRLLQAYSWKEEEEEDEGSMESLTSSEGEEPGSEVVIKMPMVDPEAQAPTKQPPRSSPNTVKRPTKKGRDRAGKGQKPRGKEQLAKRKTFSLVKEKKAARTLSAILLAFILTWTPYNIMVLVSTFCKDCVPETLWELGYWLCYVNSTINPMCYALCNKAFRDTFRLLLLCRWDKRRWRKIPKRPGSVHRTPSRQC
Method: Measurement of M1 Receptor Positive Allosteric Modulator (M1PAM) Activity
The activity of a test compound in the presence of acetylcholine at EC20 concentration (final concentration 0.8-1.0 nM), which affords an action corresponding to about 20% of the maximum activity, was measured as PAM activity. The method is as follows. CHO-K1 cells stably expressing a human M1 receptor (hCHRM1) were plated on a 384-well black clear bottom plate (BD Falcon) at 5,000 cells/well, and cultured in an incubator at 37° C., 5% CO2 for 1 day. The medium in the cell plate was removed, and a dye solution (prepared by adding Recording medium (DOJINDO LABORATORIES) to a final concentration of 1×concentration, Fluo-4 AM (DOJINDO LABORATORIES) to a final concentration of 2.5 μg/mL, Pluronic F127 (DOJINDO LABORATORIES) to a final concentration of 0.08%, and probenecid (DOJINDO LABORATORIES) to a final concentration of 1.25 mM to assay buffer (HBSS (Invitrogen), 20 mM HEPES (Invitrogen), 0.1% BSA (Wako Pure Chemical Industries, Ltd.))) was added at 30 μL/well. The cells were left standing in the incubator at 37° C., 5% CO2 for 30 min, and further left standing at room temperature for 30 min. A test compound prepared by diluting with assay buffer containing 3.2-4.0 nM acetylcholine was added at 10 μL/well, and the fluorescence was measured by FDSS/μ cell (Hamamatsu Photonics K.K.) for 1 min every 1 second. With the definition that the amount of change in the fluorescence on addition of acetylcholine (final concentration 1 μM) is 100% and that on addition of DMSO instead of a test compound is 0%, the activity (%) of the test compound was calculated, and the inflection point in the concentration-dependent curve of the test compound was calculated as IP values.

[2] = tested on: Myo-Inositol 1 Phosphate (IP1); experiment: Measurement of myo-inositol 1 phosphate (IP1) in rat hippocampi after oral administration (Experimental Example 3); type: in vivo, male Long-Evans rats; conditions: IP1 production (IP1/protein) in rat hippocampi; 10 mg/kg oral; relative to Vehicle administration group as 100%
Method: Measurement of Myo-Inositol 1 Phosphate (IP1)
Animals used were male Long-Evans rats. They were used after acclimation for at least 1 week. Test compounds were suspended in 0.5% (w/v) aqueous methylcellulose solution, and the suspension was orally administered to the rats. After a given time, lithium chloride dissolved in saline was subcutaneously administered into the rats. After a given time, their bilateral hippocampi were isolated from the rats, and the wet weight thereof was measured. The isolated hippocampi were homogenized with HEPES (registered trademark) buffer, followed by centrifugation. The IP1 and protein concentrations in the supernatant were measured by IP-One HTRF assay kit (Cisbio Bioassays) and BCA protein assay kit (Thermo Scientific), respectively. The level of the IP1 production was expressed as the ratio of the concentration of IP1 to that of protein. The increase rate of the IP1 production was shown as a relative value when Vehicle administration group as 100%.

[3] = tested on: Scopolamine-induced memory deficits models; experiment: Novel object recognition test (Experimental Example 4); type: in vivo, male Long-Evans rats; conditions: 3 mg/kg oral, scopolamine 0.1 mg/kg s.c.; retention trial 4 hr after acquisition; mean±standard error
Method: Novel Object Recognition Test Novel object recognition test is comprised of two trials called the acquisition and the retention trials. Scopolamine-induced memory deficits models were used for the test, and animals used were male Long-Evans rats. On the day before the test, for acclimation, the rats were allowed to freely move about the test box (40×40×50 cm) for 10 minutes. On the test day, the rats were acclimated to the test room for about 1 hr prior to the test. The test compounds were orally administered to the rats in a single dose a given time before the acquisition trial. For induction of learning and memory deficits, scopolamine (0.1 mg/kg) was subcutaneously administered into the rats 30 min before the acquisition trial. For the acquisition trial, two identical objects (A1, A2) were placed in the test box. The rats were put in the test box for 3 min, and the duration exploring each object was measured. The retention trial was performed 4 hr after the acquisition trial. For the retention trial, one familiar object (A3) used for the acquisition trial and one novel object (B) having a different shape from A3 were placed in the test box. After setting the objects, the rats were introduced into the test box and retention trial was performed for 3 min. The duration for exploring each object in the acquisition trial and the retention trial was measured, and the exploration rate of novel object was calculated. The exploration rate of novel object was expressed as (the duration exploring the novel object)/[(the duration exploring the novel object)+(the duration exploring the familiar object)]×100(%) at mean±standard error.

## Cc1cc2c(cc1Cc1ccc(-c3ccn(C)n3)cc1)C(=O)N([C@H]1COCC[C@@H]1O)CO2 [Example 104, 3-((3S,4S)-4-hydroxytetrahydro-2H-pyran-3-yl)-7-methyl-6-(4-(1-methyl-1H-pyrazol-3-yl)benzyl)-2,3-dihydro-4H-1,3-benzoxazin-4-one]
[1]; 10 μM test compound, 100% = acetylcholine 1 μM, 0% = DMSO
  activity (%) at 10 μM: 99%
[1]; inflection point of concentration-dependent curve, in presence of acetylcholine at EC20 (0.8-1.0 nM), CHO-K1 cells expressing hCHRM1, read-out: IP value
  EC50: 4.5 nM
[2]
  increase rate (%) at 10 mg/kg: 86%
[3]
  exploration rate of novel object (%): 61.6±2.2%
